From patent publication US10952433B2, “Solutions for enhancing the effectiveness of insecticides and fungicides on living plants and related methods” (priority 2015, dated 2021)
Where two headings read alike, the source gives them in different places.

Assays:
[1] = tested on: lepidopteran larvae: cabbage loopers (Trichoplusia ni) and beet armyworms (Spodoptera exigua); type: in vivo; settings: leaf discs
Description: A second series of tests involved romaine lettuce discs approximately ⅝ inch in diameter. (L. sativa). They were dipped in the treatment solution one second per disc. This test involved the 5/5 configuration, i.e., 5 treated and 5 untreated. The infestation involved […] lepidopteran larvae at the 3rd to 4th instar development per container: four cabbage loopers (Trichoplusia ni), and four beet armyworms (Spodoptera exigua) were employed. The test containers were placed in a dark humidity cabinet at 15° C. and 80% relative humidity. Visual evaluations of the average percent damage were taken at 24, 48 and 72 hours after the initiation of infestation. Damage was evaluated in 5% increments based on total disc area.
In the tests reported in Table 8 pages 29-32), romaine lettuce leaf discs ⅝″ in diameter (L. sativa) were dipped in the treatment solution for about one second per disc. Infestation was provided by eight lepidopteran larvae at the 3rd to 4th instar development per container. Four cabbage loopers (Trichoplusia ni) and four beet armyworms (Spodoptera exigua) were employed in infestation. The containers were placed in a dark humidity cabinet at 15° C. and 80% relative humidity. Visual observations of the average percent damage was taken at 24, 48 and 72 hours after infestation. Damage evaluation was by 5% increments over the total disc area.
In the tests results provided in Table 8, the identity and concentrations of the insecticide was identical to the tests results reported in Table 7. The concentration of 200:1 was employed for the no amino oxide, no buffer and buffered amine oxide system. This series of tests, however, reported how the percent damage changed with time at the respective 24, 48 and 72 hour intervals.

[2] = tested on: lepidopteran larvae: cabbage loopers (Trichoplusia ni) and beet armyworms (Spodoptera exigua); type: in vivo; settings: plants
Protocol: In a first group of tests, the results of which are shown in Table 7 (pages 22-24), romaine lettuce plants two to three inches in height were exposed to 10 milliliters of solution applied to each plant using a low volume trigger spray. With respect to containers 0-7, ten plants were employed per container, nine were treated and one was an internal control. In containers M-H, ten plants per container were used, five were treated and 5 were internal controls. Each container was infested with 30 lepidopteran larvae between the 5th and 6th instar development. Fifteen cabbage loopers (Trichoplusia ni) and 15 beet armyworms (Spodoptera exigua) were used to infest the romaine lettuce plants. Visual evaluations for the average percentage total surface area damage were taken 24 hours after infestation. Percentage damage was evaluated by 5% increments for total damage across all plant leaves.
As indicated in the first column of Table 7, in some tests, no insecticide was employed and there were two controls; a no water control and a no dye control. A wide variety of insecticides selected from the following group were tested: Chlorantranilopril, Acephate, Methoxyfenozide, Spinosad, Permethrin, and Indoxacarb. The product concentration is shown in PPM in column 2. Column 3 is divided into two subunits, the first being CO3 and the second, PO4. In all instances in columns 3, 4 and 5 and their sub-columns, the concentrations used were 200:1. The fourth column employed amine oxide, but no buffer. […] Two sub-columns each are represented for CO3 and PO4. The final column is a reading of the Percent Lepidopteran Damage to the romaine lettuce plants after 24 hours.
In addition to testing the buffered amine system of the present invention with the two amine oxides identified as CO3 and PO4 and their use with 12 carbon length and a mixture of 12 and 18 designated 1218 for comparative data purposes various differences were created in the testing. Some of the tests were performed with (a) no insecticide along with (b) no amine oxide for CO3 and PO4 and (c) with no buffer, but with amine oxide. Also, tests were run using no insecticide and no water control with no foliar application being made. Tests with no insecticide and no dye control employed foliar application of water only. The tests were conducted with all of the testing on the buffer alone, the amine oxide alone and the buffered amine oxide system of the present invention in the concentration of 200:1.

[3] = insecticide + CO3 buffer 200:1, no amine oxide, PPM: Chlorantranilopril 60, Acephate 70, Methoxyfenozide 100, Spinosad 30, Permethrin 10, Indoxacarb 50
[4] = insecticide + PO4 buffer 200:1, no amine oxide, PPM: Chlorantranilopril 60, Acephate 70, Methoxyfenozide 100, Spinosad 30, Permethrin 10, Indoxacarb 50
[5] = insecticide + amine oxide 12, no buffer, 200:1, PPM: Chlorantranilopril 60, Acephate 70, Methoxyfenozide 100, Spinosad 30, Permethrin 10, Indoxacarb 50
[6] = insecticide + amine oxide 1218, no buffer, 200:1, PPM: Chlorantranilopril 60, Acephate 70, Methoxyfenozide 100, Spinosad 30, Permethrin 10, Indoxacarb 50
[7] = insecticide + buffered amine oxide system CO3, 12, 200:1, PPM: Chlorantranilopril 60, Acephate 70, Methoxyfenozide 100, Spinosad 30, Permethrin 10, Indoxacarb 50
[8] = insecticide + buffered amine oxide system CO3, 1218, 200:1, PPM: Chlorantranilopril 60, Acephate 70, Methoxyfenozide 100, Spinosad 30, Permethrin 10, Indoxacarb 50
[9] = insecticide + buffered amine oxide system PO4, 12, 200:1, PPM: Chlorantranilopril 60, Acephate 70, Methoxyfenozide 100, Spinosad 30, Permethrin 10, Indoxacarb 50
[10] = insecticide + buffered amine oxide system PO4, 1218, 200:1, PPM: Chlorantranilopril 60, Acephate 70, Methoxyfenozide 100, Spinosad 30, Permethrin 10, Indoxacarb 50
[11] = insecticide alone, highest, PPM: Chlorantranilopril 120, Acephate 140, Methoxyfenozide 200, Spinosad 60, Permethrin 20, Indoxacarb 100
[12] = insecticide alone, increased, PPM: Chlorantranilopril 90, Acephate 105, Methoxyfenozide 150, Spinosad 45, Permethrin 15, Indoxacarb 75
[13] = insecticide alone, PPM: Chlorantranilopril 60, Acephate 70, Methoxyfenozide 100, Spinosad 30, Permethrin 10, Indoxacarb 50

Q: `COC(=O)N(C(=O)N1CO[C@@]2(C(=O)OC)Cc3cc(Cl)ccc3C2=N1)c1ccc(OC(F)(F)F)cc1` [Indoxacarb] was tested. Which “Percent Lepidopteran Damage to Romaine Lettuce 24 hr” value [1, 3] did it give?
A: 21.5%

Q: And the “Percent Lepidopteran Damage to Romaine Lettuce 24 hr” value [1, 4]?
A: 22.5%

Q: What about the “Percent Lepidopteran Damage to Romaine Lettuce 24 hr” value [1, 5] of the same compound?
A: 45.5%

Q: What about the “Percent Lepidopteran Damage to Romaine Lettuce 24 hr” value [1, 6] of the same compound?
A: 44.5%

Q: And the “Percent Lepidopteran Damage to Romaine Lettuce 24 hr” value [1, 7]?
A: 33.5%

Q: What about the “Percent Lepidopteran Damage to Romaine Lettuce 24 hr” value [1, 8] of the same compound?
A: 26.5%

Q: What about the “Percent Lepidopteran Damage to Romaine Lettuce 24 hr” value [1, 9] of the same compound?
A: 61.0%

Q: And the “Percent Lepidopteran Damage to Romaine Lettuce 24 hr” value [1, 10]?
A: 19.0%

Q: What about the “Percent Lepidopteran Damage to Romaine Lettuce 24 hr” value [1, 11] of the same compound?
A: 25.0%

Q: And the “Percent Lepidopteran Damage to Romaine Lettuce 24 hr” value [1, 12]?
A: 32.0%

Q: And the “Percent Lepidopteran Damage to Romaine Lettuce 24 hr” value [1, 13]?
A: 19.5%

Q: What about the “Percent Lepidopteran Damage to Romaine Lettuce 48 hr” value [1, 3] of the same compound?
A: 29.0%

Q: What about the “Percent Lepidopteran Damage to Romaine Lettuce 48 hr” value [1, 4] of the same compound?
A: 25.0%

Q: And the “Percent Lepidopteran Damage to Romaine Lettuce 48 hr” value [1, 5]?
A: 55.0%

Q: And the “Percent Lepidopteran Damage to Romaine Lettuce 48 hr” value [1, 6]?
A: 68.0%

Q: And the “Percent Lepidopteran Damage to Romaine Lettuce 48 hr” value [1, 7]?
A: 46.5%

Q: And the “Percent Lepidopteran Damage to Romaine Lettuce 48 hr” value [1, 8]?
A: 50.5%

Q: What about the “Percent Lepidopteran Damage to Romaine Lettuce 48 hr” value [1, 9] of the same compound?
A: 63.5%

Q: What about the “Percent Lepidopteran Damage to Romaine Lettuce 48 hr” value [1, 10] of the same compound?
A: 34.5%

Q: What about the “Percent Lepidopteran Damage to Romaine Lettuce 48 hr” value [1, 11] of the same compound?
A: 35.5%

Q: What about the “Percent Lepidopteran Damage to Romaine Lettuce 48 hr” value [1, 12] of the same compound?
A: 38.0%

Q: What about the “Percent Lepidopteran Damage to Romaine Lettuce 48 hr” value [1, 13] of the same compound?
A: 68.5%

Q: What about the “Percent Lepidopteran Damage to Romaine Lettuce 72 hr” value [1, 3] of the same compound?
A: 37.5%

Q: And the “Percent Lepidopteran Damage to Romaine Lettuce 72 hr” value [1, 4]?
A: 32.5%

Q: And the “Percent Lepidopteran Damage to Romaine Lettuce 72 hr” value [1, 5]?
A: 61.5%

Q: What about the “Percent Lepidopteran Damage to Romaine Lettuce 72 hr” value [1, 6] of the same compound?
A: 71.0%

Q: What about the “Percent Lepidopteran Damage to Romaine Lettuce 72 hr” value [1, 7] of the same compound?
A: 57.5%

Q: And the “Percent Lepidopteran Damage to Romaine Lettuce 72 hr” value [1, 8]?
A: 57.0%

Q: And the “Percent Lepidopteran Damage to Romaine Lettuce 72 hr” value [1, 9]?
A: 71.0%

Q: What about the “Percent Lepidopteran Damage to Romaine Lettuce 72 hr” value [1, 10] of the same compound?
A: 34.5%

Q: What about the “Percent Lepidopteran Damage to Romaine Lettuce 72 hr” value [1, 11] of the same compound?
A: 39.5%

Q: And the “Percent Lepidopteran Damage to Romaine Lettuce 72 hr” value [1, 12]?
A: 72.0%

Q: What about the “Percent Lepidopteran Damage to Romaine Lettuce 72 hr” value [1, 13] of the same compound?
A: 88.0%

Q: And the “Percent Lepidopteran Damage to Romaine Lettuce 24 hr” value [2, 3]?
A: 50.5%

Q: And the “Percent Lepidopteran Damage to Romaine Lettuce 24 hr” value [2, 4]?
A: 25.5%

Q: What about the “Percent Lepidopteran Damage to Romaine Lettuce 24 hr” value [2, 5] of the same compound?
A: 26.5%

Q: What about the “Percent Lepidopteran Damage to Romaine Lettuce 24 hr” value [2, 6] of the same compound?
A: 25.5%

Q: And the “Percent Lepidopteran Damage to Romaine Lettuce 24 hr” value [2, 7]?
A: 7.0%

Q: And the “Percent Lepidopteran Damage to Romaine Lettuce 24 hr” value [2, 8]?
A: 7.0%

Q: What about the “Percent Lepidopteran Damage to Romaine Lettuce 24 hr” value [2, 9] of the same compound?
A: 7.5%

Q: And the “Percent Lepidopteran Damage to Romaine Lettuce 24 hr” value [2, 10]?
A: 8.0%

Q: What about the “Percent Lepidopteran Damage to Romaine Lettuce 24 hr” value [2, 11] of the same compound?
A: 12.0%

Q: And the “Percent Lepidopteran Damage to Romaine Lettuce 24 hr” value ([2]; insecticide alone, highest, PPM: Chlorantranilopril 120, Acephate 140, Methoxyfenozide 200, Spinosad 60, Permethrin 20, Indoxacarb 100, listed as lndoxacarb)?
A: 12.5%

Q: And the “Percent Lepidopteran Damage to Romaine Lettuce 24 hr” value [2, 12]?
A: 20.0%

Q: And the “Percent Lepidopteran Damage to Romaine Lettuce 24 hr” value [2, 13]?
A: 47.0%
